# Laboratory results: patent US11802120B2, “Fused cyclic urea derivatives as CRHR2 antagonist” (RaQualia Pharma Inc., priority 2018, dated 2023)
# Molecular target: T1, human CRHR2-alpha (Homo sapiens, UniProt Q13324)
# T1 sequence (Q13324 1-411): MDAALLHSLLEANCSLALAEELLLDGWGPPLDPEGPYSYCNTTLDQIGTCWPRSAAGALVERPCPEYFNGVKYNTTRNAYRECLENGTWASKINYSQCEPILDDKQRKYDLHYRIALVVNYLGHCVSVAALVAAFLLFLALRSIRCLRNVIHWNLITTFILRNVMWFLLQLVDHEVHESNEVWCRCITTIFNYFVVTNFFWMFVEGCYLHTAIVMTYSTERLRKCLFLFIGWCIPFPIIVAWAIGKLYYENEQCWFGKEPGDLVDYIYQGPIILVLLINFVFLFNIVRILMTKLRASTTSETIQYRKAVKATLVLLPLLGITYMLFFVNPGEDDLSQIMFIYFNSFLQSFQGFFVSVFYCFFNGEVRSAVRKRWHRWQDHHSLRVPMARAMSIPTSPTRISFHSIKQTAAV
# Assay: cAMP functional assay for human CRHR2 (LANCE Ultra cAMP, TR-FRET)
# Assay type: cell-based
# Settings: CHO-K1 cells expressing human CRHR2-alpha, agonist human urocortin2 at EC80, cAMP; read-out: IC50 against CRHR2
# How it was run: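 Inhibition of agonist-driven cAMP was assessed in recombinant CHO-K1 cells at 25° C, using 30 min compound pretreatment and 30 min stimulation with EC80 human urocortin2 (CRHR2) or CRF (CRHR1). IC50 came from dose-response fitting.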
row,Structure (SMILES),IC50
1,"O=C(N[C@H]1CC[C@H](Cn2c(=O)n(-c3cnc(OCCO)c(F)c3)c3ccccc32)CC1)c1cc(Cl)cnc1C(F)F [Example 638, 5-chloro-2-(difluoromethyl)-N-((1r,4r)-4-((3-(5-fluoro-6-(2-hydroxyethoxy)pyridin-3-yl)-2-oxo-2,3-dihydro-1H-benzo[d]imidazol-1-yl)methyl)cyclohexyl)nicotinamide]",< 300 nM
2,"CNc1ncc(-n2c(=O)n(C[C@H]3CC[C@H](NC(=O)c4cc(Cl)cnc4C(F)F)CC3)c3ccccc32)cc1F [Example 639, 5-chloro-2-(difluoromethyl)-N-((1r,4r)-4-((3-(5-fluoro-6-(methylamino)pyridin-3-yl)-2-oxo-2,3-dihydro-1H-benzo[d]imidazol-1-yl)methyl)cyclohexyl)nicotinamide]",< 300 nM
3,"O=C(N[C@H]1CC[C@H](Cn2c(=O)n(-c3ccc(N4CCNC4=O)nc3)c3ccccc32)CC1)c1cc(Cl)cnc1C(F)(F)F [Example 640, 5-chloro-N-((1r,4r)-4-((2-oxo-3-(6-(2-oxoimidazolidin-1-yl)pyridin-3-yl)-2,3-dihydro-1H-benzo[d]imidazol-1-yl)methyl)cyclohexyl)-2-(trifluoromethyl) nicotinamide]",< 300 nM
4,"O=C(N[C@H]1CC[C@H](Cn2c(=O)n(-c3ccc(N4CCCC4=O)nc3)c3ccccc32)CC1)c1cc(Cl)cnc1C(F)(F)F [Example 641, 5-chloro-N-((1r,4r)-4-((2-oxo-3-(6-(2-oxopyrrolidin-1-yl)pyridin-3-yl)-2,3-dihydro-1H-benzo[d]imidazol-1-yl)methyl)cyclohexyl)-2-(trifluoromethyl) nicotinamide]",< 300 nM
5,"CCC(=O)Nc1ccc(-n2c(=O)n(C[C@H]3CC[C@H](NC(=O)c4cc(Cl)cnc4C(F)(F)F)CC3)c3ccccc32)cn1 [Example 643, 5-chloro-N-((1r,4r)-4-((2-oxo-3-(6-propionamido-pyridin-3-yl)-2,3-dihydro-1H-benzo[d]imidazol-1-yl)methyl)cyclohexyl)-2-(tri-fluoromethyl)nicotinamide]",< 300 nM
6,"Cc1nc2cc(-n3c(=O)n(C[C@H]4CC[C@H](NC(=O)c5cc(Cl)cnc5C)CC4)c4ccccc43)ccc2s1 [Example 645, 5-chloro-2-methyl-N-((1r,4r)-4-((3-(2-methylbenzo[d]thiazol-5-yl)-2-oxo-2,3-dihydro-1H-benzo[d]imidazol-1-yl)methyl)cyclohexyl) nicotinamide]",< 300 nM
7,"CNc1ccc(-n2c(=O)n(C[C@H]3CC[C@H](NC(=O)c4cc(Cl)cnc4C)CC3)c3ccccc32)cc1 [Example 646, 5-chloro-2-methyl-N-((1r,4r)-4-((3-(4-(methylamino)phenyl)-2-oxo-2,3-dihydro-1H-benzo[d]imidazol-1-yl)methyl)cyclohexyl)nicotinamide]",< 300 nM
8,"Cc1ncc(Cl)cc1C(=O)N[C@H]1CC[C@H](Cn2c(=O)n(-c3ccc(N(C)C)cn3)c3ccccc32)CC1 [Example 647, 5-chloro-N-((1r,4r)-4-((3-(5-(dimethylamino)pyridin-2-yl)-2-oxo-2,3-dihydro-1H-benzo [d]imidazol-1-yl)methyl)cyclo-hexyl)-2-methylnicotinamide]",< 300 nM
9,"CN(C)c1ccc(-n2c(=O)n(C[C@H]3CC[C@H](NC(=O)c4cc(Cl)cnc4C(F)F)CC3)c3ccccc32)nc1 [Example 648, 5-chloro-2-(difluoromethyl)-N-((1r,4r)-4-((3-(5-(dimethyl-amino)pyridin-2-yl)-2-oxo-2,3-dihydro-1H-benzo[d]imidazol-1-yl)methyl)cyclo-hexyl)nicotinamide]",< 300 nM
10,"Cc1ncc(Cl)cc1C(=O)N[C@H]1CC[C@H](Cn2c(=O)n(-c3ccnc(N(C)C)c3)c3ccccc32)CC1 [Example 649, 5-chloro-N-((1r,4r)-4-((3-(2-(dimethylamino)pyridin-4-yl)-2-oxo-2,3-dihydro-1H-benzo[d]imidazol-1-yl)methyl)cyclohexyl)-2-methyl-nicotinamide]",< 300 nM
11,"CN(C)c1cc(-n2c(=O)n(C[C@H]3CC[C@H](NC(=O)c4cc(Cl)cnc4C(F)F)CC3)c3ccccc32)ccn1 [Example 650, 5-chloro-2-(difluoromethyl)-N-((1r,4r)-4-((3-(2-(dimethyl-amino)pyridin-4-yl)-2-oxo-2,3-dihydro-1H-benzo[d]imidazol-1-yl)methyl)cyclo-hexyl)nicotinamide]",< 300 nM
12,"Cc1ncc(Cl)cc1C(=O)N[C@H]1CC[C@H](Cn2c(=O)n(-c3cccc(-c4ccn(C)n4)c3)c3ccccc32)CC1 [Example 651, 5-chloro-2-methyl-N-((1r,4r)-4-((3-(3-(1-methyl-1H-pyrazol-3-yl)phenyl)-2-oxo-2,3-dihydro-1H-benzo [d]imidazol-1-yl)methyl)cyclohexyl)nicotinamide]",< 300 nM
13,"Cc1ncc(Cl)cc1C(=O)N[C@H]1CC[C@H](Cn2c(=O)n(-c3cncc(-c4ccn(C)n4)c3)c3ccccc32)CC1 [Example 652, 5-chloro-2-methyl-N-((1r,4r)-4-((3-(5-(1-methyl-1H-pyrazol-3-yl)pyridin-3-yl)-2-oxo-2,3-dihydro-1H-benzo[d]imidazol-1-yl)methyl)cyclohexyl)nicotinamide]",< 300 nM
14,"Cc1ncc(Cl)cc1C(=O)N[C@H]1CC[C@H](Cn2c(=O)n(-c3ccc(-c4ccn(C)n4)nc3)c3ccccc32)CC1 [Example 654, 5-chloro-2-methyl-N-((1r,4r)-4-((3-(6-(1-methyl-1H-pyrazol-3-yl)pyridin-3-yl)-2-oxo-2,3-dihydro-1H-benzo[d]imidazol-1-yl)methyl)cyclohexyl)nico-tinamide]",< 300 nM
15,"Cc1ncc(Cl)cc1C(=O)N[C@H]1CC[C@H](Cn2c(=O)n(-c3ccnc(-c4ccn(C)n4)c3)c3ccccc32)CC1 [Example 655, 5-chloro-2-methyl-N-((1r,4r)-4-((3-(2-(1-methyl-1H-pyrazol-3-yl)pyridin-4-yl)-2-oxo-2,3-dihydro-1H-benzo[d]imidazol-1-yl)methyl)cyclohexyl)nicotinamide]",< 300 nM
16,"Cc1ncc(Cl)cc1C(=O)N[C@H]1CC[C@H](Cn2c(=O)n(-c3cccc(-c4cnn(C)c4)n3)c3ccccc32)CC1 [Example 656, 5-chloro-2-methyl-N-((1r,4r)-4-((3-(6-(1-methyl-1H-pyrazol-4-yl)pyridin-2-yl)-2-oxo-2,3-dihydro-1H-benzo[d]imidazol-1-yl)methyl)cyclohexyl)nicotinamide]",< 300 nM
17,"Cn1cc(-c2cccc(-n3c(=O)n(C[C@H]4CC[C@H](NC(=O)c5cc(Cl)cnc5C(F)F)CC4)c4ccccc43)n2)cn1 [Example 657, 5-chloro-2-(difluoromethyl)-N-((1r,4r)-4-((3-(6-(1-methyl-1H-pyrazol-4-yl)pyridin-2-yl)-2-oxo-2,3-dihydro-1H-benzo[d]imidazol-1-yl)methyl)cyclohexyl)nicotinamide]",< 300 nM
18,"NC(=O)Nc1ccc(-n2c(=O)n(C[C@H]3CC[C@H](NC(=O)c4cc(Cl)cnc4C(F)F)CC3)c3ccccc32)cn1 [Example 658, 5-chloro-2-(difluoromethyl)-N-((1r,4r)-4-((2-oxo-3-(6-ureidopyridin-3-yl)-2,3-dihydro-1H-benzo[d]imidazol-1-yl)methyl)cyclohexyl)nicotinamide]",< 300 nM
